Consider 10 compounds from paper PMC6447871, “Design, Synthesis, Molecular Modeling, In Silico ADME Studies and Anti-HIV-1 Assay of New Diazocoumarin Derivatives” (Iranian Journal of Pharmaceutical Research : IJPR, 2018).

Usually viability stands for a per cent measure of how many cells are alive, often set against a control. The inhibition is the drop in the measured response relative to a control, in per cent. The term CC50 denotes the concentration that lowers cell viability or growth by half. What is called EC50 is the concentration at which the effect is half-maximal. For orientation: melting point means the temperature, or range, at which the solid turns liquid.

One data set in a line: in vitro. To be noted: human. The procedure:
(§1) Anti-HIV-1 activity of synthesized compounds was evaluated in single cycle replication assay which was evaluated in our laboratory and reported previously ([32]-[35]). In this assay, the single-cycle replicable HIV NL4-3 virions (200 ng p24) were inoculated concurrently with compounds in different concentrations to the Hela cells. The inhibition rate (%) of p24 expression was measured by capture ELISA (Biomerieux, France) 72 hours after inoculation. Percentage inhibition of p24 expression in treated culture was calculated as inhibition rate of p24 (%). The XTT (sodium3-[1(phenylaminocarbonyl)-3,4-tetrazolium]-bis(4-methoxy-6-nitro)benzene sulfonic acid) proliferation assay was conducted to evaluate the cellular toxicity according to kit instructions ([36], [37]). Cytotoxicity test was performed exactly after the p24 assay.
(§2) Compounds 11a-h were assayed for anti-HIV-1 activity in single cycle replication method which reflects only one round of infection. Anti-HIV activity of compounds was measured as inhibition rate (%) of p24 expression in Hela cells cultures. Azidothymidine (AZT) was the positive control in the test. The cytotoxic properties were measured in the same cells by XTT proliferation assay and reported as percentage of cell viability.

Data set [1] relates to HIV-1. Nature of the data set: microbe, parasite or virus in culture. It is filed as cell-based. The note with it: Human immunodeficiency virus 1, NL43, M-HeLa, 72 h, read-out: (%) Inhibition rate of p24 expression. The procedure: as §1, §2
On the set-up of data set [2]: method as in earlier work. To be noted: read-out: CC50 (cytotoxicity); cited from earlier work.
The test system of data set [3] is HIV-1. Further details: method as in earlier work. The note with it: read-out: EC50 (anti-HIV-1 activity); cited from earlier work.

`Cc1cn([C@H]2C[C@H](N=[N+]=[N-])[C@@H](CO)O2)c(=O)[nH]c1=O` [AZT, Azidothymidine, reference compound] came in with a viability at 72 h, 100 µM in the data set “in vitro” of 92%. The inhibition at 100 µM in the data set with HIV-1 [1] worked out at 58%.

As for `O=c1c(-c2nnc(SCc3ccccc3F)o2)c[nH]c2c(-c3ccccc3)cccc12` [Compound 3], the CC50 in data set [2] was over 100 µM. Besides, in the data set with HIV-1 [3], the EC50 is 50 µM.

The compound `CSc1nnc(-c2ccc(N=Nc3c(O)c4ccccc4oc3=O)cc2)o1` [Compound 11a, 4-Hydroxy-3-((4-(5-(methylthio)-1,3,4-oxadiazol-2-yl)phenyl)diazenyl)-2H-chromen-2-one] registered a melting point of 211.6 to 212.1 °C. This compound also yielded a viability at 72 h, 100 µM in the data set “in vitro” of 51%. For the same compound, the inhibition at 100 µM with HIV-1 [1] stood at 79%.

Turning to `CCSc1nnc(-c2ccc(N=Nc3c(O)c4ccccc4oc3=O)cc2)o1` [Compound 11b, 3-((4-(5-(Ethylthio)-1,3,4-oxadiazol-2-yl)phenyl)diazenyl)-4-hydroxy-2H-chromen-2-one], the melting point was 290 to 291 °C (dec.). The compound also yielded a viability at 72 h, 100 µM in the data set “in vitro” of 100%. Besides, in the data set on HIV-1 [1], the inhibition at 100 µM came out at 5%.

As for `CCCSc1nnc(-c2ccc(N=Nc3c(O)c4ccccc4oc3=O)cc2)o1` [Compound 11c, 4-Hydroxy-3-((4-(5-(propylthio)-1,3,4-oxadiazol-2-yl)phenyl)diazenyl)-2H-chromen-2-one], the melting point was in the range of 205.5 to 206.8 °C. In “in vitro”, this compound gave a viability at 72 h, 100 µM of 93%. Besides, the inhibition at 100 µM with HIV-1 [1] was 32%.

`O=c1oc2ccccc2c(O)c1N=Nc1ccc(-c2nnc(SCc3ccccc3)o2)cc1` [Compound 11d, 3-((4-(5-(Benzylthio)-1,3,4-oxadiazol-2-yl)phenyl)diazenyl)-4-hydroxy-2H-chromen-2-one] had a melting point of 243.1 to 243.8 °C. Further, in “in vitro”, the viability at 72 h, 100 µM stood at 94%. For the same compound, the inhibition at 100 µM with HIV-1 [1] was determined as 6%.

In turn, `O=c1oc2ccccc2c(O)c1N=Nc1ccc(-c2nnc(SCc3ccccc3Cl)o2)cc1` [Compound 11e, 3-((4-(5-(2-Chlorobenzylthio)-1,3,4-oxadiazol-2-yl)phenyl)diazenyl)-4-hydroxy-2H-chromen-2-one] registered a melting point of 236.8 to 237.5 °C. The viability at 72 h, 100 µM in “in vitro” was found to be 75%. Besides, the inhibition at 100 µM with HIV-1 [1] was 33%.

Take `O=c1oc2ccccc2c(O)c1N=Nc1ccc(-c2nnc(SCc3ccc(Cl)cc3)o2)cc1` [Compound 11f, 3-((4-(5-(4-Chlorobenzylthio)-1,3,4-oxadiazol-2-yl)phenyl)diazenyl)-4-hydroxy-2H-chromen-2-one]: the melting point was in the range of 260.8 to 263.8 °C. Further, in the data set “in vitro”, the viability at 72 h, 100 µM is 100%. For the same compound, the inhibition at 100 µM in the data set on HIV-1 [1] worked out at 52%.

Consider `O=c1oc2ccccc2c(O)c1N=Nc1ccc(-c2nnc(SCc3ccccc3F)o2)cc1` [Compound 11g, 3-((4-(5-(2-Fluorobenzylthio)-1,3,4-oxadiazol-2-yl)phenyl)diazenyl)-4-hydroxy-2H-chromen-2-one], for which the melting point fell in the range of 240.1 to 242.2 °C. This compound also displayed a viability at 72 h, 100 µM in the data set “in vitro” of 74%. The inhibition at 100 µM in the data set with HIV-1 [1] stood at 22%.

The compound `O=c1oc2ccccc2c(O)c1N=Nc1ccc(-c2nnc(SCc3ccc(F)cc3)o2)cc1` [Compound 11h, 3-((4-(5-(4-Fluorobenzylthio)-1,3,4-oxadiazol-2-yl)phenyl)diazenyl)-4-hydroxy-2H-chromen-2-one] gave a melting point of 246.6 to 251.6 °C. Moreover, in “in vitro”, the viability at 72 h, 100 µM was 100%. Moreover, the inhibition at 100 µM with HIV-1 [1] worked out at 25%.
